By inhibition is commonly meant the change of the read-out against control, counted positive when it falls.

Holding throughout (format): in vitro ADME
One data set concerns the target T1, CYP2C9 (Homo sapiens, UniProt P11712).
T1 construct: tissue BD-Gentest 452117; host or cells: human liver microsomes
Description: CYP inhibition assay in human liver microsome, CYP2C9. The conditions noted are these: HLM, diclofenac substrate; for inhibition at 5 min, 10 µM: human, liver microsomes, probe diclofenac, read-out: CYP inhibition % @10 uM (2C9). Here is the method: (§1) This is a high throughput screening assay used for assessment of reversible inhibition of CYP2C9, CYP2D6, and CYP3A4 activity of test compounds in human liver microsome (HLM) in early discovery stage.
(§2) 10 mM DMSO stock solutions of test compounds were diluted in DMSO to generate 2 mM intermediate stock solution. 250 nL of intermediate stock solution were transferred in duplicate into 3 separate 384 well microtitre plates (assay-ready plates). A mixture of HLM and each substrate was made up. 45 μL of HLM substrate mix was then transferred to each well of an assay ready plate and mixed. The negative (solvent) and positive controls (standard inhibitor for each CYP) were included in each assay ready plate. The assay ready plate was warmed to 37° C. in an incubator over 10 minutes. 5 μL pre-warmed NADPH regenerating system was added to each incubation well to start the reaction. Final incubation volume was 50 μL. The assay plate then was placed back in the 37° C. incubator. After 5 minutes incubation (10 minutes for CYP2D6), incubates were quenched by addition of 50 μL quench reagent containing internal standards (400 ng/mL 13C6-4′-OH-Diclofenac, 20 ng/mL D3-Dextrorphan and 20 ng/mL D4-1′OH-Midazolam in acetonitrile). The supernatants were collected for RapidFire/MS/MS analysis.
(§3) RapidFire online solid phase extraction/sample injection system (Agilent) coupled with API4000 triple quadrupole mass spectrometer (AB Sciex) were used for sample analysis. The mobile phase composed of acetonitrile and water supplemented with 0.1% formic acid. A C4 solid phase extraction cartridge is used for sample separation. MS detection is achieved in positive ion MRM mode.
(§4) Peak areas for substrate, metabolite and internal standard are determined using the
(§5) RapidFire integrator software (version 3.6.12009.12296). Peak area ratios (PAR) of metabolite and internal standard (stable-labelled metabolite) are then calculated. The measurement window for each experiment is then defined:
(§6) PAR (0% activity)=average PAR for all incubations containing concentrated inhibitor;
(§7) Par (100% activity)=average PAR for all incubations containing no inhibitor (DMSO controls);
(§8) % Activity (test inhibitor) =[PAR(test inhibitor)-PAR(0% activity)][PAR(100% activity)-PAR(0% activity)];
(§9) % Inhibition (test inhibitor)=100-% Activity (test inhibitor).
(§10) Percentage inhibition data are then reported, in duplicate, for the 3 CYP enzymes.

The next data set addresses T2, CYP2D6 (Homo sapiens, UniProt P10635).
T2 construct: tissue BD-Gentest 452117; host or cells: human liver microsomes
Description: CYP inhibition assay in human liver microsome, CYP2D6. The conditions noted are these: HLM, dextromethorphan substrate; for inhibition at 10 min, 10 µM: human, liver microsomes, probe dextromethorphan, read-out: CYP inhibition % @10 uM (2D6). The procedure: as §1, §2, §3, §4, §5, §6, §7, §8, §9, §10
(Microsomes from liver hold many membrane-bound enzymes, among them those of drug oxidation.)

A short description of data set [1]: Human microsome stability assay. The conditions noted are these: 1 μM test compound, 0.5 mg/mL protein. Here is the method:
The human microsomal stability assay is used for early assessment of metabolic stability of a test compound in human liver microsomes.
Human liver microsomes (Cat. NO.: 452117, Corning, USA; Cat. NO.: H2610, Xenotech, USA) were preincubated with test compound for 10 minutes at 37° C. in 100 mM potassium phosphate buffer, pH 7.4. The reactions were initiated by adding NADPH regenerating system. The final incubation mixtures contained 1 μM test compound, 0.5 mg/mL liver microsomal protein, 1 mM MgCl2, 1 mM NADP, 1 unit/mL isocitric dehydrogenase and 6 mM isocitric acid in 100 mM potassium phosphate buffer, pH 7.4. After incubation times of 0, 3, 6, 9, 15 and 30 minutes at 37° C., 300 μL of cold ACN (including internal standard) was added to 100 μL incubation mixture to terminate the reaction. Following precipitation and centrifugation, the amount of compound remaining in the samples were determined by LC-MS/MS. Controls of no NADPH regenerating system at zero and 30 minutes were also prepared and analyzed. The results were categorized as: low (<7.0 mL/min/kg), medium (7.0˜16.2 mL/min/kg) and high (16.2-23.2 mL/min/kg).

T1 sequence (P11712 whole entry): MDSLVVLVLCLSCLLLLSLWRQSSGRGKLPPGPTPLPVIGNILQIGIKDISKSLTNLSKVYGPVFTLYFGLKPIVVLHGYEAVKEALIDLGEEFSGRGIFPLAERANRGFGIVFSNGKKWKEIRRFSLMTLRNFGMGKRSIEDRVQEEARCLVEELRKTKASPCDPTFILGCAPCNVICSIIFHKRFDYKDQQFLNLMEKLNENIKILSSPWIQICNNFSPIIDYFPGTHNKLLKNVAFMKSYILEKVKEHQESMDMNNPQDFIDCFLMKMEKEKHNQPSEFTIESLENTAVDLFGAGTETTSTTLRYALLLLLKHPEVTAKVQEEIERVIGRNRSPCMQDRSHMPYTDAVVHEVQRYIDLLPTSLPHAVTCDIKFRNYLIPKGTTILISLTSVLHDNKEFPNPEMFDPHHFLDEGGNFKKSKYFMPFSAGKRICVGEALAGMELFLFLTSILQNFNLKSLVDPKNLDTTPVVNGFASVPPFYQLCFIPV
T2 sequence (P10635 whole entry): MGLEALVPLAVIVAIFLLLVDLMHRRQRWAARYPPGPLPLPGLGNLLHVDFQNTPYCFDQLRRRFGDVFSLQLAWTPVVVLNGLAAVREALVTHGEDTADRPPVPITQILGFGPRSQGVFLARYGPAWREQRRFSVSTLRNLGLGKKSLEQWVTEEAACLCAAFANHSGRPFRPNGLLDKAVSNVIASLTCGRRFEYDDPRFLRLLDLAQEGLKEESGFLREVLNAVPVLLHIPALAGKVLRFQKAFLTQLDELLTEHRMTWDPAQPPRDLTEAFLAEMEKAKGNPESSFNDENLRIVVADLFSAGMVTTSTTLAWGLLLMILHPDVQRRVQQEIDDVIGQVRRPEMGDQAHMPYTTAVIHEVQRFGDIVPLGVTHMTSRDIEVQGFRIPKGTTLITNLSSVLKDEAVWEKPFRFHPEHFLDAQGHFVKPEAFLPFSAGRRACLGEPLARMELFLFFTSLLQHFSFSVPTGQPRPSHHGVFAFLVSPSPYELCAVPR

In the case of `CC(NC(=O)[C@H]1CN(c2ccc(C(F)(F)F)c3ncccc23)C[C@@H](C)O1)C1CN(C)CCO1` (single isomer, unassigned) [Example 35B], the “CYP inhibition % @10 uM (2C9)” value at CYP2C9 is reported as 6%. Besides, the “CYP inhibition % @10 uM (2D6)” value at CYP2D6 amounted to 2%. In the case of `CC(NC(=O)[C@H]1CN(c2ccc(C(F)(F)F)c3ncccc23)C[C@@H](C)O1)C1CN(C)CCO1` (single isomer, unassigned) [Example 35A], on CYP2C9, the inhibition at 5 min, 10 µM was 10%. Besides, at CYP2D6, the “CYP inhibition % @10 uM (2D6)” value amounted to 8%. In the case of `C[C@H]1C[C@@H](N)CN(c2ccc(C(F)(F)F)c3ncccc23)C1` [Example 1, (3R,5S)-5-methyl-1-[8-(trifluoromethyl)-5-quinolyl]piperidin-3-amine], the “clearance in human liver microsomes” value in data set [1] turned out to be 6.15 mL/min/kg. On to `C[C@@H]1CN(c2ccc([N+](=O)[O-])c3ncccc23)C[C@H](C(=O)NC2CCN(C)CC2)O1` [Example 20, (2R,6R)-6-methyl-N-(1-methyl-4-piperidyl)-4-(8-nitro-5-quinolyl)morpholine-2-carboxamide], for which the inhibition at 5 min, 10 µM on CYP2C9 is -6%. In addition, the inhibition at 10 min, 10 µM on CYP2D6 is -12%. As for `C[C@@H]1CN(c2ccc(I)c3ncccc23)C[C@H](C(=O)NCC2CN(C)CCO2)O1` (stereo partly drawn) [Example 39, (2R,6R)-4-(8-iodo-5-quinolyl)-6-methyl-N-[(4-methylmorpholin-2-yl)methyl]morpholine-2-carboxamide], the inhibition at 5 min, 10 µM at CYP2C9 was -7%. The inhibition at 10 min, 10 µM at CYP2D6 was 5%.

As to `C[C@@H]1CN(c2ccc(C(F)(F)F)c3ncccc23)C[C@H](C(=O)NC2CC3CNCC(C3)C2)O1` (stereo partly drawn) [Example 37, (2R,6R)-N-(3-azabicyclo[3.3.1]nonan-7-yl)-6-methyl-4-[8-(trifluoromethyl)-5-quinolyl]morpholine-2-carboxamide], the inhibition at 5 min, 10 µM on CYP2C9 came out at 4%. For the same compound, the inhibition at 10 min, 10 µM at CYP2D6 was determined as 3%. In the case of `C[C@@H]1CN(c2ccc(C(F)(F)F)c3ncccc23)C[C@H](C(=O)NCCN2CCOCC2)O1` [Example 13, (2R,6R)-6-methyl-N-(2-morpholinoethyl)-4-[8-(trifluoromethyl)-5-quinolyl]morpholine-2-carboxamide], the inhibition at 5 min, 10 µM at CYP2C9 came to 1%. The inhibition at 10 min, 10 µM at CYP2D6 amounted to 0%. The matching figures for `C[C@@H]1CN(c2ccc(C(F)(F)F)c3ncccc23)C[C@H](C(=O)NCC2CN(C)CCO2)O1` (stereo partly drawn) [Example 3, (2R,6R)-6-methyl-N-[(4-methylmorpholin-2-yl)methyl]-4-[8-(trifluoromethyl)-5-quinolyl]morpholine-2-carboxamide]: -1% and 16%. The matching figures for `C[C@@H]1CN(c2ccc([N+](=O)[O-])c3ncccc23)C[C@H](C(=O)NCC2CN(C)CCO2)O1` (stereo partly drawn) [Example 18, (2R,6R)-6-methyl-N-[(4-methylmorpholin-2-yl)methyl]-4-(8-nitro-5-quinolyl)morpholine-2-carboxamide]: -4% and 0%. With `C[C@@H]1CN(c2ccc(C(F)(F)F)c3ncccc23)C[C@H](C(=O)NC2CC3CNCC32)O1` (single isomer, unassigned) [Example 49A], at CYP2C9, the “CYP inhibition % @10 uM (2C9)” value is −1%. Further, on CYP2D6, the “CYP inhibition % @10 uM (2D6)” value is given as 2%. Take `Cc1ccc(N2C[C@@H](C)C[C@@H](N)C2)c2cccnc12` [Example 15, (3R,5S)-5-methyl-1-(8-methyl-5-quinolyl)piperidin-3-amine]: the inhibition at 5 min, 10 µM at CYP2C9 is -17%. For the same compound, the inhibition at 10 min, 10 µM on CYP2D6 was -10%.

Regarding `C[C@@H]1CN(c2ccc(C(F)(F)F)c3ncccc23)C[C@H](C(=O)N2CC(N)C2)O1` [Example 7, (3-aminoazetidin-1-yl)-[(2R,6R)-6-methyl-4-[8-(trifluoromethyl)-5-quinolyl]morpholin-2-yl]methanone], in data set [1], the “clearance in human liver microsomes” value is 6.15 mL/min/kg. For the compound `C[C@@H]1CN(c2ccc(C(F)(F)F)c3ncccc23)C[C@H](C(=O)NC2CN(C)CC23CC3)O1` (stereo partly drawn) [Example 9, (2R,6R)-6-methyl-N-(5-methyl-5-azaspiro[2.4]heptan-7-yl)-4-[8-(trifluoromethyl)-5-quinolyl]morpholine-2-carboxamide], the inhibition at 5 min, 10 µM on CYP2C9 was 2%. Moreover, the inhibition at 10 min, 10 µM on CYP2D6 worked out at 6%.

Consider `C[C@@H]1CN(c2ccc(C(F)(F)F)c3ncccc23)C[C@H](C(=O)NCC2COCCN2C)O1` (stereo partly drawn) [Example 11, (2R,6R)-6-methyl-N-[(4-methylmorpholin-3-yl)methyl]-4-[8-(trifluoromethyl)-5-quinolyl]morpholine-2-carboxamide], for which the inhibition at 5 min, 10 µM on CYP2C9 was -4%. At CYP2D6, the inhibition at 10 min, 10 µM was found to be 5%.

Consider `C[C@@H]1CN(c2ccc(C(F)(F)F)c3ncccc23)C[C@H](C(=O)NC2CNC[C@@H]2F)O1` (stereo partly drawn) [Example 2, cis-(2R,6R)-N-(4-fluoropyrrolidin-3-yl)-6-methyl-4-[8-(trifluoromethyl)-5-quinolyl]morpholine-2-carboxamide], for which, in data set [1], the “clearance in human liver microsomes” value amounted to 6.15 mL/min/kg.

With `C[C@@H]1CN(c2ccc(Br)c3ncccc23)C[C@H](C(=O)NC2CCN(C)CC2)O1` [Example 42, (2R,6R)-4-(8-bromo-5-quinolyl)-6-methyl-N-(1-methyl-4-piperidyl)morpholine-2-carboxamide], at CYP2C9, the inhibition at 5 min, 10 µM was -4%. Further, the inhibition at 10 min, 10 µM on CYP2D6 was -3%. With `C[C@@H]1CN(c2ccc(Cl)c3ncccc23)C[C@H](C(=O)N[C@H]2CNC[C@H]2F)O1` [Example 22, (2R,6R)-4-(8-chloro-5-quinolyl)-N-[(3S,4R)-4-fluoropyrrolidin-3-yl]-6-methyl-morpholine-2-carboxamide], the “clearance in human liver microsomes” value in data set [1] is 6.15 mL/min/kg. On to `C[C@@H]1CN(c2ccc(C(F)(F)F)c3ncccc23)C[C@H](C(=O)NCC2CCCCN2C)O1` (stereo partly drawn) [Example 4, (2R,6R)-6-methyl-N-[(1-methyl-2-piperidyl)methyl]-4-[8-(trifluoromethyl)-5-quinolyl]morpholine-2-carboxamide], for which, on CYP2C9, the inhibition at 5 min, 10 µM was -12%. The inhibition at 10 min, 10 µM at CYP2D6 was 10%. The matching figures for `C[C@@H]1CN(c2ccc(C(F)(F)F)c3ncccc23)C[C@H](C(=O)N2CCC3(CCNCC3)CC2)O1` [Example 32, 3,9-diazaspiro[5.5]undecan-3-yl-[(2R,6R)-6-methyl-4-[8-(trifluoromethyl)-5-quinolyl]morpholin-2-yl]methanone]: -8% and -22%. As to `C[C@@H]1CN(c2ccc(C(F)(F)F)c3ncccc23)C[C@H](C(=O)NC2CNCCOC2)O1` (stereo partly drawn) [Example 14, (2R,6R)-6-methyl-N-(1,4-oxazepan-6-yl)-4-[8-(trifluoromethyl)-5-quinolyl]morpholine-2-carboxamide], at CYP2C9, the inhibition at 5 min, 10 µM is -2%. In addition, on CYP2D6, the inhibition at 10 min, 10 µM is -1%. On to `C[C@@H]1CN(c2ccc(C(F)(F)F)c3ncccc23)C[C@H](C(=O)NC[C@@H]2CC(F)(F)CN2)O1` [Example 30], for which the inhibition at 5 min, 10 µM at CYP2C9 worked out at 20%. The inhibition at 10 min, 10 µM on CYP2D6 stood at 20%. Regarding `C[C@@H]1CN(c2ccc(C(F)(F)F)c3ncccc23)C[C@H](C(=O)N2CCC3(CCNC3)C2)O1` (stereo partly drawn) [Example 36], at CYP2C9, the inhibition at 5 min, 10 µM is 1%. Besides, the inhibition at 10 min, 10 µM at CYP2D6 is -10%. Regarding `C[C@@H]1CN(c2ccc(C(F)(F)F)c3ncccc23)C[C@H](C(=O)NC2CNCC(F)(F)C2)O1` (stereo partly drawn) [Example 28, (2R,6R)-N-(5,5-difluoro-3-piperidyl)-6-methyl-4-[8-(trifluoromethyl)-5-quinolyl]morpholine-2-carboxamide], the inhibition at 5 min, 10 µM on CYP2C9 is 23%. Moreover, the inhibition at 10 min, 10 µM at CYP2D6 was found to be 2%.

These data come from patent publication US20220363665A1, “QUINOLINE COMPOUNDS FOR THE TREATMENT OF AUTOIMMUNE DISEASE” (Hoffmann-La Roche Inc., priority 2019, published 2022).
